For 96 molecules, cytotoxicity results are on record in ChEMBL document CHEMBL3507680, “University of Dundee, Gates Library screen for HepG2 cell viability”.

A short description of the data set: Human HepG2 cell viability assay in 384 well format. Also on record: dose 125 nL, time 70.5 hour; concentration not given beside the values. The conditions noted are these: HepG2 cells, read-out: Inhibition. It counts as toxicity, cell-based.
With `O=C(N1CCOCC1)n1cnc2ccccc21`, the cytotoxicity at 70.5 h was -11.5%.
On to `COc1cccc([C@@H]2CN(C3CSCCSC3)C[C@H]2C(=O)O)c1`, for which the cytotoxicity at 70.5 h was -1.5%.
With `CSc1ccc(C(C(=O)O)N2CCOCC2)cc1` (stereo unspecified), the cytotoxicity at 70.5 h is -11.2%.
Consider `CSc1ccc(C(C(=O)O)N2CCCC2)cc1` (stereo unspecified), for which the cytotoxicity at 70.5 h was -7.97%.
Consider `CO[C@H]1[C@@H]2CC[C@H]1CN(c1nc(C)nc3ccsc13)C2`, for which the cytotoxicity at 70.5 h is 19.4%.
The same measure for `c1cn(Cc2nnc(C3CCN(C4CCCCC4)CC3)n2C2CC2)cn1`: -1.01%.
Take `COc1ccc(C2Nc3ccccc3NC3=C2C(=O)NC3)cc1OC` (stereo unspecified): the cytotoxicity at 70.5 h is -7.99%.
Next, `CCN(Cc1cc(Cl)c(O)c(OC)c1)Cc1nc(COC)no1`: -4.93%; `CC(=O)c1ccc(F)cc1-c1cc(NCCO)nc2[nH]ccc12`: -0.208%.
Regarding `COCC[C@]1(O)CCN(C(=O)C2CCN(C3CCCC3)CC2)C[C@H]1C`, the cytotoxicity at 70.5 h is -5.71%.
For `COc1cc(C)ccc1S(=O)(=O)N[C@H]1CN(C(C)=O)C[C@@H]1C1CC1`, the cytotoxicity at 70.5 h is 18.1%.
In the case of `Cc1cc(CN2CCN(C(C)C)C(CCO)C2)[nH]n1` (stereo unspecified), the cytotoxicity at 70.5 h was 9.92%.
For `Cc1ccc(CN2CCN(Cc3nccn3C)[C@H]3CS(=O)(=O)C[C@H]32)o1`, the cytotoxicity at 70.5 h is -6.86%.
Take `CC(C)(CNC(=O)c1ccco1)CNC(=O)c1ccco1`: the cytotoxicity at 70.5 h was -1.35%.
Next, `CN(Cc1ccsc1)Cc1ccc(C2CCCCO2)o1` (stereo unspecified): -3.14%.
The same measure for `N#CC1CCCN(C(=O)Cn2ncc(N3CCCC3)cc2=O)C1` (stereo unspecified): -7.57%; for `C[C@H](c1ccc(Cl)cc1)n1c(C2CC2)n[nH]c1=O`: -3.55%.
For `CC(C)=CCN1CCN(Cc2nc3ccccc3[nH]2)[C@H]2CS(=O)(=O)C[C@H]21`, the cytotoxicity at 70.5 h was -8.69%.
In the case of `Cc1nc(-c2cc(F)c3c(c2)CC(CN)O3)c[nH]1` (stereo unspecified), the cytotoxicity at 70.5 h was 3.79%.
Next, `CCOCCC(=O)N(Cc1ccncc1)C(C)CC` (stereo unspecified): 20.8%.
`OC1CCCOC12CCN(Cc1nnc(-c3cccnc3)o1)CC2` (stereo unspecified): the cytotoxicity at 70.5 h was 0.216%.
In the case of `CNS(=O)(=O)CCn1cc(-c2cc3c(cc2OC)CCC3)nn1`, the cytotoxicity at 70.5 h was -7.97%.
Next, `CN(C)Cc1ccc(C2CCCCN2C(=O)c2cc(=O)[nH]c(=O)[nH]2)cc1` (stereo unspecified): -5.8%; `CS(=O)(=O)c1cnc(CC2CC2)nc1C1CCCNC1` (stereo unspecified): 19.7%.
Next, `CN1CCC2(CCC1=O)CCN(C(=O)Cc1ccc(O)c(F)c1)CC2`: 2.31%; `CC(=O)c1cc(CN2C[C@@H](N(C)C)[C@H](C(C)C)C2)cs1`: 8.63%; `O=C(O)CSc1nnc(-c2ccco2)n1-c1ccccc1C(F)(F)F`: -4.07%.
In the case of `Cc1ccc(Cl)cc1-n1nnnc1C1(N2CCCC2)CCCC1`, the cytotoxicity at 70.5 h is -11.5%.
Next, `COc1ccccc1N1CCN(CC[C@H](O)c2ccccc2)CC1=O`: -12%.
Regarding `CCN1CC2(CCN(C(=O)C(C)Oc3cccc(Cl)c3)CC2)OC1=O` (stereo unspecified), the cytotoxicity at 70.5 h was -11.6%.
`O=C(CCc1cc(O)no1)N1CCCC(COc2ccccc2F)C1` (stereo unspecified): the cytotoxicity at 70.5 h was -20.7%.
The same measure for `COCCN(C)C[C@@H]1CN(C(=O)c2ccc(O)c(C)c2)C[C@@H]1CO`: -2.33%; for `CSc1ncccc1C(=O)N1C[C@H]2CC[C@@H]1CN(C(C)=O)C2`: -6.7%.
The same measure for `CC1=CC(C)(C)N(CN2C(=O)c3ccccc3C2=O)c2ccc(C)cc21`: 7.06%; for `CC1=CC(C)(C)N(CN2C(=O)c3ccccc3C2=O)c2ccccc21`: 0.789%; for `O=C(O)[C@@H]1CN(Cc2c[nH]c(CC3CCCC3)n2)C[C@H]1c1ccccn1`: 17.2%.
Turning to `c1cc(-c2cnccn2)cc(-c2ccn(CCN3CCCCC3)n2)c1`, the cytotoxicity at 70.5 h is -7.67%.
Next, `Nc1ncc(C(=O)N2CCC3(CCCO3)CC2)c(-c2ccccc2)n1`: -2.3%.
The same measure for `Cc1cc(C(=O)N2CCN(C(=O)CC(C)C)[C@@H]3CS(=O)(=O)C[C@@H]32)no1`: -11.9%; for `CC(C)c1nc(CN(C)C(=O)C(O)c2ccc(Cl)cc2)cs1` (stereo unspecified): -0.849%; for `CN(C)CC(Nc1nc(N)nc2c1CCNCC2)c1ccccc1` (stereo unspecified): -18.8%.
Regarding `CC1(C)Cc2c(cnn2-c2cccc(F)c2)C(NC2CCSCC2)C1` (stereo unspecified), the cytotoxicity at 70.5 h worked out at 9.46%.
As for `CN1CCC(N(C)C[C@H]2CC[C@@H](Cc3ccc4occc4c3)O2)CC1`, the cytotoxicity at 70.5 h came to 3.05%.
As for `COc1cccc([C@H]2CN(C(=O)c3noc4c3CCCC4)C[C@@H]2N)c1`, the cytotoxicity at 70.5 h is -3.29%.
The same measure for `CC(c1ccncn1)N(C)Cc1cc2cc3c(cc2[nH]c1=O)OCO3` (stereo unspecified): 3.45%; for `CCc1nn(C)c(Cl)c1CN1CCCC2(CC1)CN(C)C(=O)O2` (stereo unspecified): -14.9%; for `Cc1cccnc1CC(C)Nc1nc(N)nc2c1CCNC2` (stereo unspecified): 2.93%.
The same measure for `O=C(c1cc(COc2ccc3c(c2)OCO3)[nH]n1)N1CCCCO1`: 20.1%; for `CC[C@@]1(O)CCN(Cc2cc(C3CCCCC3)no2)C[C@H]1O`: -2.92%; for `COc1ccc(OCc2cc(C(=O)N3CCOCC3)n[nH]2)c(Cl)c1`: -2.87%.
The same measure for `Cc1cc2[nH]c(=O)oc2cc1S(=O)(=O)N1CCCC(N(C)C)CC1` (stereo unspecified): -2.95%.
In the case of `COc1cccc(Cl)c1C(C(=O)O)N(C)Cc1nnc(C)o1` (stereo unspecified), the cytotoxicity at 70.5 h stood at 11.6%.
For the molecule `Cc1cc(Cl)ccc1C(=O)N1C[C@H](C2CC2)[C@@H](N)C1`, the cytotoxicity at 70.5 h is -1.61%.
The same measure for `CCc1nc2c(c(NC3CCC3)n1)CCN(C(=O)CO)CC2`: 0.47%.
Regarding `CCOCc1nc2c(c(NC(CC)c3cccnc3)n1)CCNCC2` (stereo unspecified), the cytotoxicity at 70.5 h is -3.13%.
Turning to `Cc1cc2c(c(-c3c[nH]c(C)n3)c1)OC(CN)C2` (stereo unspecified), the cytotoxicity at 70.5 h amounted to 2.12%.
The same measure for `CN(c1ccc(-c2nc(C3CC3)no2)cn1)C1CCOCC1`: -3.42%; for `CC(=O)c1ccc(C(=O)N2C[C@@H]3CC[C@H](C2)N(CC2CCC2)C3)s1`: -3.03%.
The same measure for `CN1CCN(Cc2n[nH]c(=O)n2CC2CCCCC2)CC1`: -6.17%; for `CN(Cc1ccccc1)C1(C(=O)NC(CO)CO)Cc2ccccc2C1`: 1.88%.
As to `Cc1nc(C)n(CCCn2ccnc2-c2cc3n(n2)CCCNC3)n1`, the cytotoxicity at 70.5 h is -11%.
With `Nc1nc2c(c(=O)[nH]1)CCN(C(=O)c1ccccc1N1CCCC1)C2`, the cytotoxicity at 70.5 h came out at 0.043%.
For the molecule `Nc1nc2c(c(NCc3nccs3)n1)CCN(CC1CCCC1)CC2`, the cytotoxicity at 70.5 h is -17.1%.
`CC(C)n1ccnc1CN1CCOC(CC2CCCCC2)C1` (stereo unspecified): the cytotoxicity at 70.5 h came to 5.36%.
For the molecule `CC(C)(C)c1ncc2c(n1)CN(C(=O)C(C)(C)n1cccc1)C2`, the cytotoxicity at 70.5 h was -6.39%.
On to `Cc1noc(C)c1CN1C(=O)[C@H]2CC[C@@H]1CN(Cc1nccs1)C2`, for which the cytotoxicity at 70.5 h stood at 0.0707%.
Regarding `CN1CCN(C(=O)N2CCCC(c3nccn3CC3CCC3)C2)CC1` (stereo unspecified), the cytotoxicity at 70.5 h is -15.8%.
Consider `N#Cc1cccc(N2CCC(CO)(CCCc3ccccc3)CC2)n1`, for which the cytotoxicity at 70.5 h was -4.41%.
The same measure for `Cn1cccc1C(=O)N1CCC2(CCCN(CC3CCC3)C2=O)C1` (stereo unspecified): -2.25%; for `Cc1csc(CN(C)c2cc(C)nc3c(C)c(C)nn23)n1`: -7.34%; for `CCc1nc(NC2CCCN(C(=O)C3CC3)C2)c2cnn(C)c2n1` (stereo unspecified): -15.4%.
The same measure for `O=C(O)c1cnc(N2CCC(c3nccn3CC3CC3)CC2)c(Cl)c1`: -8.03%.
Consider `COc1ccc(Cl)cc1CN(C)C(=O)CN1C(=O)CCC1C` (stereo unspecified), for which the cytotoxicity at 70.5 h was -9.27%.
Next, `O=C(O)c1ccnc(-c2ccnc(NCCc3cscn3)n2)c1`: -2.9%.
As for `Cc1c(-c2nc3cc(S(=O)(=O)N4CCCC4)ccc3n2C)cnn1C`, the cytotoxicity at 70.5 h was -22.4%.
Take `Cc1nn(C)c2ncnc(N3CCCC(OCc4ccccn4)C3)c12` (stereo unspecified): the cytotoxicity at 70.5 h is 1.57%.
Turning to `CC(CO)CN(Cc1ccccc1)C(=O)c1csc(CN(C)C)n1` (stereo unspecified), the cytotoxicity at 70.5 h was -3.43%.
On to `NC(=O)c1ccc(N2CCN(Cc3c(Cl)cncc3Cl)CC2)nc1`, for which the cytotoxicity at 70.5 h stood at 10.8%.
The same measure for `Cc1cc(C)n(CC(C)NC2CCN(Cc3cccnc3)CC2)n1` (stereo unspecified): -7.19%; for `CC1CCCN(c2ccc(C(N)=O)cc2NC(=O)CC2=CCNCC2)C1` (stereo unspecified): -17.5%.
On to `CN(CCC1CCOCC1)C(=O)C1CCC(=O)N(Cc2ccccn2)C1` (stereo unspecified), for which the cytotoxicity at 70.5 h worked out at 13.4%.
The same measure for `COCCN1CCC(c2nc3c([nH]2)CCCNC3=O)CC1`: -8.24%; for `c1ccc(C2CN(C3CC3)CC3(CCN(Cc4cscn4)CC3)C2)cc1` (stereo unspecified): -5.25%; for `Nc1cc(N2CCCC(COc3ccc(F)cc3)C2)nc(N)n1` (stereo unspecified): -2.71%.
For `O=c1c2cccc(C(F)(F)F)c2ncn1CCN1CCNCC1`, the cytotoxicity at 70.5 h is -1.89%.
As to `Cc1nc2c(N3CCC(O)(Cn4ccnc4)CC3)ncnc2o1`, the cytotoxicity at 70.5 h is -0.124%.
`COCc1nc(CNC2CCSC2)no1` (stereo unspecified): the cytotoxicity at 70.5 h is -2.87%.
Next, `Fc1cccnc1Oc1cc(F)c(CN2CCCC2)c(Cl)c1`: 22.4%; `CN(CC(=O)N1CC(Oc2ccccc2Cl)C1)Cc1ccncc1`: 12.8%.
`COC1CCCN(C2CCN(c3cccc(-c4csc(C)n4)c3)CC2)C1` (stereo unspecified): the cytotoxicity at 70.5 h was -1.69%.
For `Cc1sc2nc(CCN)nc(N3CCC(N4CCCC4)CC3)c2c1C`, the cytotoxicity at 70.5 h is -4.21%.
The same measure for `CCCNC(=O)c1ccc(S(=O)(=O)NCC2(O)CCCNC2)cc1` (stereo unspecified): -5.48%; for `CCc1nnc(CNC(=O)CCCN2CCCCC2)s1`: -0.919%; for `COc1nc2c(cc1C(=O)N1CCCOC(Cn3cccn3)C1)CCC2` (stereo unspecified): -2.14%.
The same measure for `COc1cccc(CN2CCN(Cc3ccc4nonc4c3)CC2=O)c1`: -0.956%; for `N[C@H]1CN(C(=O)c2ccc3[nH]c(CO)nc3c2)C[C@@H]1c1ccccc1`: -19.4%.
